Drawing on ChEMBL document CHEMBL1641410, “In silico discovery of acylated flavonol monorhamnosides from Eriobotrya japonica as natural, small-molecular weight inhibitors of XIAP BIR3” (Bioorg Med Chem, 2011), this text covers IC50 and Stability for two compounds.

The target in series [1] is E3 ubiquitin-protein ligase XIAP (Homo sapiens, UniProt P98170). Nature of the series: Displacement of fluorescent SM5F peptide from XIAP linker BIR3 domain after 3 hrs by fluorescence polarization assay. In general terms: Polarisation of emitted light reports the rotation of a fluorescent probe.
Chain of E3 ubiquitin-protein ligase XIAP (P98170 whole entry, the tested form may be a part): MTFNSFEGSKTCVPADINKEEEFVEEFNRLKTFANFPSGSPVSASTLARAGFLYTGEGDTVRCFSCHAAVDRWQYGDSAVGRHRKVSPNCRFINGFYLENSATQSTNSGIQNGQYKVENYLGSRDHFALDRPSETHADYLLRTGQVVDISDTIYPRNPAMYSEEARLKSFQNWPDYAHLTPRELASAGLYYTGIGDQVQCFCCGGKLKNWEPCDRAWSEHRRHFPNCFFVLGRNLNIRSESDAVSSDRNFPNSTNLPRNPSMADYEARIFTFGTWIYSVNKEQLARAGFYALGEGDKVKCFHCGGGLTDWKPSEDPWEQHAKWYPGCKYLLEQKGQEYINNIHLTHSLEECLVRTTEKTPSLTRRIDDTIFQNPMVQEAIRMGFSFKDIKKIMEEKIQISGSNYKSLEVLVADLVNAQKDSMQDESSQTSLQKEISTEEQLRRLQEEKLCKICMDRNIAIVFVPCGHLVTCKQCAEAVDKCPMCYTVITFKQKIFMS
Series [2] in a line: Chemical stability of the compound after 15 hrs. It is filed as physicochemical.

The structures appear in SMILES notation. Some results are limits rather than exact numbers.

In general, IC50 refers to the concentration at which inhibition is half-maximal. In the case of `C[C@@H]1O[C@@H](Oc2c(-c3ccc(O)cc3)oc3cc(O)cc(O)c3c2=O)[C@H](OC(=O)/C=C/c2ccc(O)cc2)[C@H](O)[C@H]1OC(=O)/C=C/c1ccc(O)cc1`, the IC50 in series [1] is more than 10.4 µM. Besides, in series [2], the Stability result is given as “Stable”.
Turning to `O=c1c(O)c(-c2ccc(O)cc2)oc2cc(O)cc(O)c12` [KAEMPFEROL], the 50% inhibitory concentration (IC50) in series [1] is more than 100 µM.
